Test results: US12152031B2, “Biodefense agents” (priority 2018, dated 2024)
≈ marks a conversion by molar mass, not a printed value.

Tests used:
Type in all cases: cell-based
Burkholderia mallei = test: microbe, parasite or virus in culture; settings: for MIC: read-out: MIC range
Enterobacteriaceae = tested on: Enterobacteriaceae
E. coli DH10B = test: microbe, parasite or virus in culture; settings: Escherichia coli
[1] = tested on: E. coli DH10B mcr-1 transformant; test: microbe, parasite or virus in culture; settings: Escherichia coli
P. aeruginosa = test: microbe, parasite or virus in culture; settings: Pseudomonas aeruginosa, read-out: MICs
Bacillus anthracis = test: microbe, parasite or virus in culture; settings: for MIC: read-out: MIC range
Yersinia pestis = test: microbe, parasite or virus in culture; settings: for MIC: read-out: MIC range
Francisella tularensis = test: microbe, parasite or virus in culture; settings: for MIC: read-out: MIC range
[2] = tested on: Burkholderia pseudomallei; test: microbe, parasite or virus in culture; settings: Burkholderia pseudomallei; for MIC: read-out: MIC range

## CC[C@H]1OC(=O)[C@H](C)[C@@H](O[C@H]2C[C@@](C)(OC)[C@@H](O)[C@H](C)O2)[C@H](C)[C@@H](O[C@@H]2O[C@H](C)C[C@H](N(C)C)[C@H]2O)[C@](C)(O)C[C@@H](C)CN(C)[C@H](C)[C@@H](O)[C@]1(C)O [Azithromycin, azithromycin, reference compound]
Burkholderia mallei
  MIC50: 0.5 µg/mL (≈ 0.668 µM)
  MIC90: 1 µg/mL (≈ 1.34 µM)
  MIC: 0.06 to 1 µg/mL (≈ 0.0801 to 1.34 µM)

## CC(=N)NCC[C@@H]1CCC[C@@H](c2ccc(-n3cc4cc(-c5cc(CCC[C@@H](N)CO)cc(Cl)c5F)[nH]c4nc3=O)cc2F)N1 [RX-04C, N-(2-((2S,6S)-6-(4-(6-(5-((R)-4-amino-5-hydroxypentyl)-3-chloro-2-fluorophenyl)-2-oxo-2,7-dihydro-3H-pyrrolo[2,3-d]pyrimidin-3-yl)-2-fluorophenyl)piperidin-2-yl)ethyl)acetimidamide]
Enterobacteriaceae
  peak of unimodal MIC distribution: 2 µg/mL
E. coli DH10B
  MIC: 0.5 µg/mL (≈ 0.799 µM)
[1]
  MIC: 0.5 µg/mL (≈ 0.799 µM)
P. aeruginosa
  MIC: ≥ 16 µg/mL

## C=CCN1[C@H](CCNC(C)=N)CCC[C@H]1c1ccc(-n2cc3cc(-c4cc(CCC[C@H](C)N)cc(Cl)c4F)[nH]c3nc2=O)cc1 [RX-D10]
Bacillus anthracis
  MIC50: 0.12 µg/mL (≈ 0.19 µM)
  MIC90: 0.25 µg/mL (≈ 0.395 µM)
  MIC: 0.008 to 0.25 µg/mL (≈ 0.0127 to 0.395 µM)
Yersinia pestis
  MIC50: 0.12 µg/mL (≈ 0.19 µM)
  MIC90: 0.5 µg/mL (≈ 0.791 µM)
  MIC: 0.03 to 0.5 µg/mL (≈ 0.0475 to 0.791 µM)
Francisella tularensis
  MIC50: 0.12 µg/mL (≈ 0.19 µM)
  MIC90: 0.5 µg/mL (≈ 0.791 µM)
  MIC: 0.03 to 2 µg/mL (≈ 0.0475 to 3.16 µM)
Burkholderia mallei
  MIC50: 0.12 µg/mL (≈ 0.19 µM)
  MIC90: 0.25 µg/mL (≈ 0.395 µM)
  MIC: 0.06 to 0.25 µg/mL (≈ 0.0949 to 0.395 µM)
[2]
  MIC50: 2 µg/mL (≈ 3.16 µM)
  MIC90: 4 µg/mL (≈ 6.33 µM)
  MIC: 0.25 to 8 µg/mL (≈ 0.395 to 12.7 µM)

## C[C@H](N)CCCc1cc(Cl)c(F)c(-c2cc3cn(-c4ccc([C@H]5CC[C@H](CCNC(=N)N)N5)cc4)c(=O)nc3[nH]2)c1 [RX-D13]
Bacillus anthracis
  MIC50: 0.06 µg/mL (≈ 0.104 µM)
  MIC90: 0.06 µg/mL (≈ 0.104 µM)
  MIC: 0.008 to 0.12 µg/mL (≈ 0.0138 to 0.207 µM)
Yersinia pestis
  MIC50: 0.06 µg/mL (≈ 0.104 µM)
  MIC90: 0.25 µg/mL (≈ 0.432 µM)
  MIC: 0.03 to 0.25 µg/mL (≈ 0.0518 to 0.432 µM)
Francisella tularensis
  MIC50: 0.015 µg/mL (≈ 0.0259 µM)
  MIC90: 0.06 µg/mL (≈ 0.104 µM)
  MIC: 0.004 to 0.12 µg/mL (≈ 0.00691 to 0.207 µM)
Burkholderia mallei
  MIC50: 0.06 µg/mL (≈ 0.104 µM)
  MIC90: 0.12 µg/mL (≈ 0.207 µM)
  MIC: 0.008 to 0.12 µg/mL (≈ 0.0138 to 0.207 µM)
[2]
  MIC50: 1 µg/mL (≈ 1.73 µM)
  MIC90: 4 µg/mL (≈ 6.91 µM)
  MIC: 0.25 to 8 µg/mL (≈ 0.432 to 13.8 µM)

## CSc1cc(-n2cc3cc(-c4cc(CCC[C@@H](N)C5CC5)cc(Cl)c4F)[nH]c3nc2=O)ccc1[C@@H]1CCC[C@@H](CCNC(C)=N)N1 [RX-04B, N-(2-((2S,6S)-6-(4-(6-(5-((R)-4-amino-4-cyclopropylbutyl)-3-chloro-2-fluorophenyl)-2-oxo-2,7-dihydro-3H-pyrrolo[2,3-d]pyrimidin-3-yl)-2-(methylthio)phenyl)piperidin-2-yl)ethyl)acetimidamide]
Enterobacteriaceae
  peak of unimodal MIC distribution: 1 µg/mL
E. coli DH10B
  MIC: 0.5 µg/mL (≈ 0.753 µM)
[1]
  MIC: 0.5 µg/mL (≈ 0.753 µM)

## C=C[C@H](N)CCCc1cc(Cl)c(F)c(-c2cc3cn(-c4ccc([C@@H]5CCC[C@@H](CCNC(C)=N)N5)c(SC)c4)c(=O)nc3[nH]2)c1 [RX-D7]
Bacillus anthracis
  MIC50: ≤ 0.008 µg/mL
  MIC90: 0.03 µg/mL (≈ 0.0461 µM)
  MIC: 0.008 to 0.06 µg/mL (≈ 0.0123 to 0.0923 µM)
Yersinia pestis
  MIC50: 0.25 µg/mL (≈ 0.384 µM)
  MIC90: 0.5 µg/mL (≈ 0.769 µM)
  MIC: 0.03 to 1 µg/mL (≈ 0.0461 to 1.54 µM)
Francisella tularensis
  MIC50: 0.12 µg/mL (≈ 0.185 µM)
  MIC90: 0.25 µg/mL (≈ 0.384 µM)
  MIC: 0.06 to 0.5 µg/mL (≈ 0.0923 to 0.769 µM)
Burkholderia mallei
  MIC50: 0.25 µg/mL (≈ 0.384 µM)
  MIC90: 0.25 µg/mL (≈ 0.384 µM)
  MIC: 0.06 to 0.5 µg/mL (≈ 0.0923 to 0.769 µM)
[2]
  MIC50: 4 µg/mL (≈ 6.15 µM)
  MIC90: 8 µg/mL (≈ 12.3 µM)

## CC(=N)NCC[C@@H]1CCC[C@@H](c2ccc(-n3cc4cc(-c5cc(CCC[C@H](C)N)cc(Cl)c5F)[nH]c4nc3=O)cc2)N1CCCF [RX-D3]
Bacillus anthracis
  MIC50: 0.12 µg/mL (≈ 0.184 µM)
  MIC90: 0.12 µg/mL (≈ 0.184 µM)
  MIC: 0.03 to 0.25 µg/mL (≈ 0.046 to 0.383 µM)
Yersinia pestis
  MIC50: 0.12 µg/mL (≈ 0.184 µM)
  MIC90: 0.25 µg/mL (≈ 0.383 µM)
  MIC: 0.06 to 0.5 µg/mL (≈ 0.092 to 0.767 µM)
Francisella tularensis
  MIC50: 0.12 µg/mL (≈ 0.184 µM)
  MIC90: 0.25 µg/mL (≈ 0.383 µM)
  MIC: 0.015 to 2 µg/mL (≈ 0.023 to 3.07 µM)
Burkholderia mallei
  MIC50: 0.12 µg/mL (≈ 0.184 µM)
  MIC90: 0.25 µg/mL (≈ 0.383 µM)
  MIC: 0.03 to 0.25 µg/mL (≈ 0.046 to 0.383 µM)
[2]
  MIC50: 2 µg/mL (≈ 3.07 µM)
  MIC90: 4 µg/mL (≈ 6.13 µM)
  MIC: 0.5 to 8 µg/mL (≈ 0.767 to 12.3 µM)

## C[C@H](N)CCCc1cc(Cl)c(F)c(-c2cc3cn(-c4ccc([C@@H]5CCC[C@@H](CCSC(=N)N)N5)cc4)c(=O)nc3[nH]2)c1 [RX-D4]
Bacillus anthracis
  MIC50: 0.06 µg/mL (≈ 0.0983 µM)
  MIC90: 0.12 µg/mL (≈ 0.197 µM)
  MIC: 0.015 to 0.12 µg/mL (≈ 0.0246 to 0.197 µM)
Yersinia pestis
  MIC50: 0.12 µg/mL (≈ 0.197 µM)
  MIC90: 0.25 µg/mL (≈ 0.41 µM)
  MIC: 0.004 to 0.5 µg/mL (≈ 0.00656 to 0.819 µM)
Francisella tularensis
  MIC50: 0.03 µg/mL (≈ 0.0492 µM)
  MIC90: 0.06 µg/mL (≈ 0.0983 µM)
  MIC: 0.004 to 0.5 µg/mL (≈ 0.00656 to 0.819 µM)
Burkholderia mallei
  MIC50: 0.12 µg/mL (≈ 0.197 µM)
  MIC90: 0.12 µg/mL (≈ 0.197 µM)
  MIC: 0.03 to 0.12 µg/mL (≈ 0.0492 to 0.197 µM)
[2]
  MIC50: 1 µg/mL (≈ 1.64 µM)
  MIC90: 4 µg/mL (≈ 6.56 µM)
  MIC: 0.25 to 8 µg/mL (≈ 0.41 to 13.1 µM)
